Series [1] in a line: XRPD analysis of crystallinity (amorphous stability) of spray dried dispersions on storage. Type of series: physicochemical. The note with it: stored at room temperature under vacuum (FIG. 8). The protocol:
All dispersions were spray dried using a Niro SD spray dryer connected to a nitrogen generator.
Solutions for dispersions were prepared by dissolving griseofulvin, a major excipient (PVP) and a minor excipient in an acetone water co-solvent system. To ensure homogeneity, the dispersions were allowed to mix for eight hours before the dispersion was spray dried using a Niro SD system under nitrogen conditions with an inlet temperature of 65° C. and an outlet temperature of 45° C. The feed rate was around 15% of maximum and the nitrogen flow rates were 20 kg/hr and 2 kg/hr for the drying and atomization rates respectively.
The samples were then stored under constant vacuum for 24 hours to allow for the removal of solvent before being transferred to the required conditions.
A Philips PW37010 X-ray Powder Diffractometer (Philips, Cambridge, UK) was used to analyse the samples for crystallization, with a sample XRPD scans shown in FIGS. 1a and 1b.
This was compressed to produce a flat surface before being loaded into the XRPD. […]
Pure crystalline griseofulvin or flavanone was subjected to the same methodology to produce a standard XRPD scan. A number of peaks were selected from each of these standards to produce a 100% crystalline value expressed as X-ray count/°2Θ these were then compared with the area under the peaks of the dispersions to produce percentage crystallinity values.

The conditions of series [2]: indomethacin with PVP, hydrogen bonding; cited from earlier work.
The conditions of series [3]: griseofulvin dispersed in PVP (high Tg polymer); cited from earlier work.
Series [4] can be described thus: Dissolution, USP paddle method. Type of series: physicochemical. The note with it: pH6.8 buffer at 37 C, 100 rpm (FIG. 11). The method, then: Dispersions were prepared as described above containing Gris:PVP 1:1; Gris:PHPMA:PVP 2.5:1.25:1.25, and compared to Gris spray dried without polymer and crystalline Gris. Dissolution data were prepared by placing a small amount of sample in a hard gelatine capsule and following dissolution in pH6.8 buffer at 37 C (with added surfactant if dispersion was required), using a USP paddle method.

As to `O=C1CC(c2ccccc2)Oc2ccccc21` (centres unmarked) [Flavanone], the “crystallinity by XRPD” value was “near completely crystalline” in series [1] (Flavanone dispersed with PVP); “only partial crystallinity” in series [1] (Flavanone dispersed with a combination of PHPMA and PVP).
With `COc1ccc2c(c1)c(CC(=O)O)c(C)n2C(=O)c1ccc(Cl)cc1` [Indomethacin], the amorphous stability entry in series [2] was “above that expected on the basis of glass transition temperature alone”.
`COC1=CC(=O)C[C@@H](C)[C@]12Oc1c(Cl)c(OC)cc(OC)c1C2=O` [griseofulvin, Griseofulvin]: the “crystallisation of drug dispersed in polymer” value in series [3] is reported as “relatively rapid crystallisation”. For the same molecule, the dissolution result in series [4] was “slow dissolution”.

(Values after US20080227855A1, “Solid Dispersion of Hydrophobic Bioactive” (priority 2005, published 2008).)
